Laboratory results published in patent US20080015225A1, “Dimeric Piperidine Derivatives” (JANSSEN PHARMACEUTICA N.V., priority 2004, published 2008).

Tested on: chicken dorsal root ganglion (DRG) neurons
Assay: Neuronal viability assay (calcein-AM) in primary culture of chicken dorsal root ganglion neurons
Assay type: cell-based, chicken (White Leghorn chick embryos)
Conditions: Gallus gallus, DRG neuron, 48 h; survival of chick embryonic day 10 DRG neurons after two days of incubation; calcein-AM fluorescence; 0% = no neurotrophic factor, 100% = 10 ng/ml NGF; pIC50 from dose response curves; read-out: [C1] DRG assay SCORE
Text: This assay is based on a fluorimetric Calcein-AM measurement and addresses the functional response of neurons as a quantitative measure of survival.
Primary Culture of Chicken Dorsal Root Ganglion Neurons
Dorsal root ganglia were dissected from White Leghorn chick embryos at embryonic day 10 as described previously (Skaper S. D. and Varon S. (1986) Brain Research 389, 39-46). The ganglia were trypsinised and dissociated by mild trituration in a HBSS buffer supplemented with 0.6% glucose and 0.08% trypsin. To remove non-neuronal lo cells by differential attachment to culture plastic, the ganglionic cell suspension was diluted to 2.5×10^5 cells/ml and seeded on tissue culture plastic dishes at 10 ml per 100 mm dish. After 2 h preplating, unattached neurons were collected and resuspended into Basal Eagle Medium containing 10% FCS. To remove cell aggregates, the cell suspension was passed through a nylon mesh (50 μM) pore diameter. Neuron-enriched cell suspension was plated at 5×10^4 cells/ml into poly-L-ornithine (100 μg/ml) and laminine (1 μg/ml) coated multiwell 96 plates. Compounds were dissolved in dimethyl sulfoxide and kept as a stock at −20° C. NGF and compounds were diluted in the culture medium and added to the cells immediately after plating. The final concentration of dimethyl sulfoxide in the test medium was 0.1%. After two days of incubation, neuronal viability was assessed with calcein-AM.
Neuronal Viability Assay Using Calcein-AM
Neuronal viability assay using calcein AM was performed as previously described (Bozyczko-Coyne D., McKenna B. W., Connors T. J., and Neff N. T. (1993) Journal of Neuroscience Methods 50, 205-216). For the assay, calcein-AM was diluted in PBS to the final concentration (1 μM). For each experiment an aliquot of calcein-AM (1 mg/ml in DMSO stored at −20° C.) was thawed immediately before use. The medium was removed from the wells and replaced with the calcein-AM solution. Assay plates were incubated for 1 h at 37° C. in a humidified CO2 incubator. Following the incubation, reading was done in a Cytofluor II at an excitation wavelength of 485 nm and an emission wavelength of 530 nm. Each plate had control wells with no neurotrophic factor added (0% survival) and wells with 10 ng/ml NGF (100% survival).
The drugs to be tested were taken from a stock solution and tested at a final concentration ranging from […] to 3.10^−9M. From the thus obtained dose response curves, the pIC50 value was calculated and scored as follows; Score 1=pIC50 value <6, Score 2=pIC50 value in the range of 6 to 8, Score 3 =pIC50 value>8. (in this table NT stands for Not Tested).

O=C(c1ccc(F)cc1)C1CCN(CC#CCN2CCC(C(=O)c3ccc(F)cc3)CC2)CC1 [Compound 1]
IC50: < 10 nM

c1ccc2c(c1)CCN2C1CCN(CCCCCCCCCCCCN2CCC(N3CCc4ccccc43)CC2)CC1 [Compound 2]
IC50: 10 to 1000 nM

O=C(NCCCCCCNC(=O)N1CCC(O)(c2cccc(C(F)(F)F)c2)C(O)C1)N1CCC(O)(c2cccc(C(F)(F)F)c2)C(O)C1 (stereo not drawn) [Compound 3]
IC50: 10 to 1000 nM

CC(C)(C)Cc1nc(C2CCN(C(=O)CCCCCC(=O)N3CCC(c4noc(CC(C)(C)C)n4)CC3)CC2)no1 [Compound 4]
IC50: > 1000 nM

O=S(=O)(c1ccc(Cc2ccc(S(=O)(=O)N3CCC(O)(c4cccnc4)CC3)cc2)cc1)N1CCC(O)(c2cccnc2)CC1 [Compound 5]
IC50: 10 to 1000 nM

O=S(=O)(c1ccc(Oc2ccc(S(=O)(=O)N3CCC(O)(c4ccc(Br)cc4)CC3)cc2)cc1)N1CCC(O)(c2ccc(Br)cc2)CC1 [Compound 6]
IC50: > 1000 nM

O=C(CCCCCCCC(=O)N1CCC(O)(c2cccc(Cl)c2)CC1)N1CCC(O)(c2cccc(Cl)c2)CC1 [Compound 7]
IC50: > 1000 nM

O=C(CCCCC(=O)N1CCC(OCc2cccc(C(F)(F)F)c2)CC1)N1CCC(OCc2cccc(C(F)(F)F)c2)CC1 [Compound 10]
IC50: 10 to 1000 nM

O=C(CCCCCCC(=O)N1CCC(Oc2nc3ccccc3s2)CC1)N1CCC(Oc2nc3ccccc3s2)CC1 [Compound 11]
IC50: 10 to 1000 nM

O=C(CCCCCCC(=O)N1CCC(OCc2cccc(C(F)(F)F)c2)CC1)N1CCC(OCc2cccc(C(F)(F)F)c2)CC1 [Compound 12]
IC50: 10 to 1000 nM

O=S(=O)(c1ccc(Cc2ccc(S(=O)(=O)N3CCC(O)(c4ccc(Cl)c(Cl)c4)CC3)cc2)cc1)N1CCC(O)(c2ccc(Cl)c(Cl)c2)CC1 [Compound 13]
IC50: > 1000 nM

O=S(=O)(c1ccc(Oc2ccc(S(=O)(=O)N3CCC(O)(c4ccc(Cl)c(Cl)c4)CC3)cc2)cc1)N1CCC(O)(c2ccc(Cl)c(Cl)c2)CC1 [Compound 14]
IC50: 10 to 1000 nM

O=S(=O)(c1ccc(Oc2ccc(S(=O)(=O)N3CCC(O)(c4cccc(Cl)c4)CC3)cc2)cc1)N1CCC(O)(c2cccc(Cl)c2)CC1 [Compound 15]
IC50: 10 to 1000 nM

O=S(=O)(c1ccc(Oc2ccc(S(=O)(=O)N3CCC(O)(c4ccc(Cl)cc4)CC3)cc2)cc1)N1CCC(O)(c2ccc(Cl)cc2)CC1 [Compound 16]
IC50: 10 to 1000 nM

C(#CCN1CCC(c2c[nH]c3ccccc23)CC1)CN1CCC(c2c[nH]c3ccccc23)CC1 [Compound 17]
IC50: 10 to 1000 nM

OC(CN1CCC(O)(c2cccc(C(F)(F)F)c2)C(O)C1)CN1CCC(O)(c2cccc(C(F)(F)F)c2)C(O)C1 (stereo not drawn) [Compound 18]
IC50: 10 to 1000 nM

OC(CN1CCC(O)(c2ccc(Cl)cc2)CC1)CN1CCC(O)(c2ccc(Cl)cc2)CC1 [Compound 19]
IC50: 10 to 1000 nM

O=C(CCCCCCCC(=O)N1CCC(O)(c2ccc(Cl)c(C(F)(F)F)c2)CC1)N1CCC(O)(c2ccc(Cl)c(C(F)(F)F)c2)CC1 [Compound 20]
IC50: 10 to 1000 nM

O=C(c1cccc(C(=O)N2CCC(O)(c3ccc(Cl)c(C(F)(F)F)c3)CC2)c1)N1CCC(O)(c2ccc(Cl)c(C(F)(F)F)c2)CC1 [Compound 21]
IC50: 10 to 1000 nM

O=C(CCCCCCCC(=O)N1CCC(O)(c2ccc(Cl)c(Cl)c2)CC1)N1CCC(O)(c2ccc(Cl)c(Cl)c2)CC1 [Compound 22]
IC50: > 1000 nM

O=C(c1ccc(Cl)cc1)C1CCN(C(=O)CCCCCCCC(=O)N2CCC(C(=O)c3ccc(Cl)cc3)CC2)CC1 [Compound 23]
IC50: 10 to 1000 nM

O=C(c1ccc(Cl)cc1)C1CCN(C(=O)CCCCC(=O)N2CCC(C(=O)c3ccc(Cl)cc3)CC2)CC1 [Compound 24]
IC50: 10 to 1000 nM

O=C(CCCCC(=O)N1CCC(O)(c2ccc(Cl)c(C(F)(F)F)c2)CC1)N1CCC(O)(c2ccc(Cl)c(C(F)(F)F)c2)CC1 [Compound 25]
IC50: > 1000 nM

OC1(c2ccc(Cl)cc2)CCN(CC#CCN2CCC(O)(c3ccc(Cl)cc3)CC2)CC1 [Compound 26]
IC50: < 10 nM

COc1cc2nc(NCC3CCN(C(=O)NCCCCCCNC(=O)N4CCC(CNc5nc6cc(OC)c(OC)cc6s5)CC4)CC3)sc2cc1OC [Compound 27]
IC50: 10 to 1000 nM

O=C(NCCCCCCNC(=O)N1CCC(O)(c2ccc(Cl)cc2)CC1)N1CCC(O)(c2ccc(Cl)cc2)CC1 [Compound 28]
IC50: 10 to 1000 nM

O=C(NCCCCCCNC(=O)N1CCC(Cc2c[nH]c3ccccc23)CC1)N1CCC(Cc2c[nH]c3ccccc23)CC1 [Compound 29]
IC50: 10 to 1000 nM

O=C(NCCCCCCNC(=O)N1CCC(c2noc3cc(F)ccc23)CC1)N1CCC(c2noc3cc(F)ccc23)CC1 [Compound 30]
IC50: 10 to 1000 nM

O=C(Nc1ccc(Cc2ccc(NC(=O)N3CCC(O)(c4ccc(F)cc4)CC3)cc2)cc1)N1CCC(O)(c2ccc(F)cc2)CC1 [Compound 32]
IC50: > 1000 nM

O=C(Nc1ccc(NC(=O)N2CCC(O)(c3cccc(C(F)(F)F)c3)CC2)cc1)N1CCC(O)(c2cccc(C(F)(F)F)c2)CC1 [Compound 33]
IC50: 10 to 1000 nM

O=C(Nc1ccc(NC(=O)N2CCC(O)(c3ccc(Cl)c(C(F)(F)F)c3)CC2)cc1)N1CCC(O)(c2ccc(Cl)c(C(F)(F)F)c2)CC1 [Compound 34]
IC50: 10 to 1000 nM

O=C(NCCCCCCNC(=O)N1CCC(Cc2nc3ccccc3s2)CC1)N1CCC(Cc2nc3ccccc3s2)CC1 [Compound 36]
IC50: 10 to 1000 nM

O=C(c1cccc(C(F)(F)F)c1)C1CCN(C(=O)NCCCCNC(=O)N2CCC(C(=O)c3cccc(C(F)(F)F)c3)CC2)CC1 [Compound 38]
IC50: 10 to 1000 nM

c1ccc2c(CC3CCN(CCCN4CCC(Cc5c[nH]c6ccccc56)CC4)CC3)c[nH]c2c1 [Compound 39]
IC50: 10 to 1000 nM

Fc1ccc2c(C3CCN(CC#CCN4CCC(c5noc6cc(F)ccc56)CC4)CC3)noc2c1 [Compound 40]
IC50: 10 to 1000 nM

COc1ccc(-c2noc(C3CCN(C(=O)c4ccc(-c5ccc(C(=O)N6CCC(c7nc(-c8ccc(OC)c(OC9CCCC9)c8)no7)CC6)cc5)cc4)CC3)n2)cc1OC1CCCC1 [Compound 41]
IC50: 10 to 1000 nM

O=C(CCCCCCCC(=O)N1CCC(c2noc3cc(F)ccc23)CC1)N1CCC(c2noc3cc(F)ccc23)CC1 [Compound 42]
IC50: 10 to 1000 nM

O=C(c1cccc(C(=O)N2CCC(O)(c3ccc(Cl)c(Cl)c3)CC2)c1)N1CCC(O)(c2ccc(Cl)c(Cl)c2)CC1 [Compound 43]
IC50: > 1000 nM

O=C(c1cccc(C(=O)N2CCC(O)(c3cccc(C(F)(F)F)c3)CC2)c1)N1CCC(O)(c2cccc(C(F)(F)F)c2)CC1 [Compound 44]
IC50: > 1000 nM

O=C(c1ccc(F)cc1)C1CCN(C(=O)CCCCCCCC(=O)N2CCC(C(=O)c3ccc(F)cc3)CC2)CC1 [Compound 45]
IC50: > 1000 nM

OC1(c2ccc(Cl)c(Cl)c2)CCN(CC#CCN2CCC(O)(c3ccc(Cl)c(Cl)c3)CC2)CC1 [Compound 47]
IC50: 10 to 1000 nM

O=C(NCCCCCCNC(=O)N1CCC(O)(c2ccc(Cl)c(C(F)(F)F)c2)CC1)N1CCC(O)(c2ccc(Cl)c(C(F)(F)F)c2)CC1 [Compound 48]
IC50: 10 to 1000 nM
